Earlier results as cited in patent US10160778B2, “Pyrimidine phosphonic acid esters” (Concert Pharmaceuticals, Inc., priority 2014, dated 2018).

Settings: phase II study for the prevention of cytomegalovirus infection

CCCCCCCCCCCCCCCCOCCCOP(=O)(O)CO[C@H](CO)Cn1ccc(N)nc1=O [brincidofovir, 3-(hexadecyloxy)propyl hydrogen ((((S)-1-(4-amino-2-oxopyrimidin-1 (2H)-yl)-3-hydroxypropan-2-yl)oxy)methyl)phosphonate]
dose-limiting side effect: diarrhea
